The record followed here is the NIST ThermoML archive (doi:10.1016/j.fluid.2014.06.010).

The conditions of the data set: Liquid; Closed cell (Static) method.

Each structure is given as a SMILES string. Numbers after ± are expanded uncertainties.

Turning to `CC(O)C(=O)O` (configuration not stated) [2-hydroxypropanoic acid], the Normal boiling temperature worked out at 125.1 ± 0.2 °C.
Turning to `CC(=O)CC(C)C` [4-methylpentan-2-one], the Normal boiling temperature worked out at 119.2 ± 0.2 °C.
